According to publication PMC6645578 (ACS Omega, 2017):
Where two headings read alike, the source gives them in different places.

Legend:
[1] = tested on: EstSP1; assay: p-nitrophenol release at […] nm, Lineweaver-Burk; assay type: biochemical, Sphingomonas sp. PAMC 26605; conditions: 40 °C; 0.1-0.5 mM substrate; 3 min; Table 3 and text print 92.5
[2] = tested on: EstSP1; conditions: 40 °C; 0.1-0.5 mM substrate; 3 min; text prints 247

**Q.** `CCCC(=O)Oc1ccc([N+](=O)[O-])cc1` [p-nitrophenyl butyrate] was tested. Which Km [1] did it give?
**A.** 92 ± 1.2 µM

**Q.** What about the Km [2] of the same compound?
**A.** 249 ± 7.8 µM
